Experimental data published in ChEMBL document CHEMBL5370585, “Exploration and Biological Evaluation of 1,3-Diamino-7H-pyrrol[3,2-f]quinazoline Derivatives as Dihydrofolate Reductase Inhibitors” (J Med Chem, 2023).
pIC50: −log10 of the molar value. Values after ≈ are worked out from the molar mass of the structure shown.

Columns and labels:
[1] = system: Escherichia coli; assay: Antibacterial activity against Escherichia coli ECO 15-1 incubated for 16 to 18 hrs by CLSI based broth dilution method; format: functional; conditions: time 16-18 hrs
[2] = system: Staphylococcus aureus; assay: Antibacterial activity against methicillin-resistant Staphylococcus aureus ATCC 33591 incubated for 16 to 18 hrs by CLSI based broth dilution method; format: functional; conditions: time 16-18 hrs
[3] = system: Staphylococcus aureus; assay: Antibacterial activity against methicillin-sensitive Staphylococcus aureus ATCC 25923 incubated for 16 to 18 hrs by CLSI based broth dilution method; format: functional; conditions: time 16-18 hrs
[4] = system: Staphylococcus aureus; assay: Antibacterial activity against methicillin-sensitive Staphylococcus aureus 15-2 incubated for 16 to 18 hrs by CLSI based broth dilution method; format: functional; conditions: time 16-18 hrs
[5] = system: Staphylococcus aureus; assay: Antibacterial activity against vancomycin intermediate Staphylococcus aureus ATCC 700788 incubated for 16 to 18 hrs by CLSI based broth dilution method; format: functional; conditions: time 16-18 hrs
[6] = system: Enterococcus faecalis; assay: Antibacterial activity against Enterococcus faecalis EFA19-1 incubated for 16 to 18 hrs by CLSI based broth dilution method; format: functional; conditions: time 16-18 hrs
[7] = system: Acinetobacter baumannii; assay: Antibacterial activity against Acinetobacter baumannii 20-2 incubated for 16 to 18 hrs by CLSI based broth dilution method; format: functional; conditions: time 16-18 hrs
[8] = system: Escherichia coli; assay: Antibacterial activity against Escherichia coli ATCC 25922 incubated for 16 to 18 hrs by CLSI based broth dilution method; format: functional; conditions: time 16-18 hrs
[9] = system: Staphylococcus aureus; assay: Antibacterial activity against methicillin-sensitive Staphylococcus aureus ATCC 29213 incubated for 16 to 18 hrs by CLSI based broth dilution method; format: functional; conditions: time 16-18 hrs
[10] = system: Acinetobacter baumannii; assay: Antibacterial activity against Acinetobacter baumannii ATCC 19606 assessed as reduction in microbial growth incubated for 16 to 18 hrs by CLSI based broth dilution method; format: functional; conditions: time 16-18 hrs
[11] = system: Staphylococcus aureus; assay: Antibacterial activity against methicillin-sensitive Staphylococcus aureus 15-1 incubated for 16 to 18 hrs by CLSI based broth dilution method; format: functional; conditions: time 16-18 hrs
[12] = system: Enterococcus faecalis; assay: Antibacterial activity against Enterococcus faecalis EFA19-2 incubated for 16 to 18 hrs by CLSI based broth dilution method; format: functional; conditions: time 16-18 hrs
[13] = system: Escherichia coli; assay: Antibacterial activity against Escherichia coli ATCC BAA-2340 incubated for 16 to 18 hrs by CLSI based broth dilution method; format: functional; conditions: time 16-18 hrs
[14] = system: Enterococcus; assay: Antibacterial activity against Vancomycin-resistant Enterococcus ATCC 51575 incubated for 16 to 18 hrs by CLSI based broth dilution method; format: functional; conditions: time 16-18 hrs
[15] = system: Staphylococcus aureus; assay: Antibacterial activity against methicillin-resistant Staphylococcus aureus ATCC 43300 incubated for 16 to 18 hrs by CLSI based broth dilution method; format: functional; conditions: time 16-18 hrs
[16] = system: Staphylococcus aureus; assay: Antibacterial activity against vancomycin intermediate Staphylococcus aureus ATCC 700699 incubated for 16 to 18 hrs by CLSI based broth dilution method; format: functional; conditions: time 16-18 hrs
[17] = system: Staphylococcus epidermidis; assay: Antibacterial activity against Staphylococcus epidermidis ATCC 12228 incubated for 16 to 18 hrs by CLSI based broth dilution method; format: functional; conditions: time 16-18 hrs
[18] = system: Acinetobacter baumannii; assay: Antibacterial activity against Acinetobacter baumannii 20-1 incubated for 16 to 18 hrs by CLSI based broth dilution method; format: functional; conditions: time 16-18 hrs
[19] = system: HGC-27; assay: Cytotoxicity against human HGC-27 cells measured after 72 hrs by MTT assay; format: functional, cell-based; conditions: HGC-27, 72 h
[20] = system: Acinetobacter baumannii; assay: Antibacterial activity against Acinetobacter baumannii ATCC 19606 incubated for 16 to 18 hrs by CLSI based broth dilution method; format: functional; conditions: time 16-18 hrs
[21] = system: Klebsiella pneumoniae; assay: Antibacterial activity against Klebsiella pneumoniae 15-1 assessed as reduction in microbial growth incubated for 16 to 18 hrs by CLSI based broth dilution method; format: functional; conditions: time 16-18 hrs
[22] = system: Pseudomonas aeruginosa; assay: Antibacterial activity against Pseudomonas aeruginosa ATCC 27853 incubated for 16 to 18 hrs by CLSI based broth dilution method; format: functional; conditions: time 16-18 hrs
[23] = system: Klebsiella pneumoniae; assay: Antibacterial activity against Klebsiella pneumoniae ATCC 700603 assessed as reduction in microbial growth incubated for 16 to 18 hrs by CLSI based broth dilution method; format: functional; conditions: time 16-18 hrs
[24] = system: HepG2; assay: Cytotoxicity against human HepG2 cells measured after 72 hrs by MTT assay; format: functional, cell-based; conditions: HepG2, 72 h
[25] = system: Enterococcus faecalis; assay: Antibacterial activity against Enterococcus faecalis ATCC 29212 incubated for 16 to 18 hrs by CLSI based broth dilution method; format: functional; conditions: time 16-18 hrs
[26] = system: Staphylococcus aureus; assay: Antibacterial activity against Staphylococcus aureus ATCC 29213 incubated for 16 to 18 hrs by CLSI based broth dilution method; format: functional; conditions: time 16-18 hrs
[27] = system: HCT-116; assay: Cytotoxicity against human HCT-116 cells measured after 72 hrs by MTT assay; format: functional, cell-based; conditions: HCT-116, 72 h
[28] = molecular target: T1, Dihydrofolate reductase (Homo sapiens) (UniProt P00374); assay: Inhibition of human DHFR at 1 uM incubated for 10 mins in presence of NADPH by colorimetry based analysis relative to control
T1 sequence (whole entry): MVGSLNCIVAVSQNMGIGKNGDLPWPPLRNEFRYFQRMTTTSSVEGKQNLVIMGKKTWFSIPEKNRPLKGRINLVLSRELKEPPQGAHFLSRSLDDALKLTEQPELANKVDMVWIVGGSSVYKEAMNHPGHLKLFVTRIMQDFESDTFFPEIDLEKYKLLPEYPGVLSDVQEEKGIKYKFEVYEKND

[29] = system: MCF7; assay: Cytotoxicity against human MCF7 cells measured after 72 hrs by MTT assay; format: functional, cell-based; conditions: MCF7, 72 h

SMILES	MIC [1]	MIC [2]	MIC [3]	MIC [4]	MIC [5]	MIC [6]	MIC [7]	MIC [8]	MIC [9]	MIC [10]	MIC [11]	MIC [12]	MIC [13]	MIC [14]	MIC [15]	MIC [16]	MIC [17]	MIC [18]	pIC50 [19]	MIC [20]	further results
C[C@H]1COc2c(N3CCN(C)CC3)c(F)cc3c(=O)c(C(=O)O)cn1c23 [LEVOFLOXACIN ANHYDROUS]	8 µg/mL (≈ 22.1 µM)	0.25 µg/mL (≈ 0.692 µM)	0.25 µg/mL (≈ 0.692 µM)	64 µg/mL (≈ 177 µM)	32 µg/mL (≈ 88.6 µM)	1 µg/mL (≈ 2.77 µM)	≤ 0.03 µg/mL	≤ 0.03 µg/mL	0.25 µg/mL (≈ 0.692 µM)	0.25 µg/mL	16 µg/mL (≈ 44.3 µM)	2 µg/mL (≈ 5.53 µM)	32 µg/mL (≈ 88.6 µM)	1 µg/mL (≈ 2.77 µM)	0.25 µg/mL (≈ 0.692 µM)	64 µg/mL (≈ 177 µM)					
Nc1nc(N)c2c(ccc3c2ccn3Cc2cccc3ccccc23)n1	> 64 µg/mL	≤ 0.03 µg/mL	≤ 0.03 µg/mL	≤ 0.03 µg/mL	≤ 0.03 µg/mL	≤ 0.03 µg/mL	2 µg/mL (≈ 5.89 µM)	1 µg/mL (≈ 2.95 µM)	≤ 0.03 µg/mL	1 µg/mL	≤ 0.03 µg/mL	≤ 0.03 µg/mL	> 64 µg/mL	≤ 0.03 µg/mL	0.06 µg/mL (≈ 0.177 µM)	0.06 µg/mL (≈ 0.177 µM)	1 µg/mL (≈ 2.95 µM)	32 µg/mL (≈ 94.3 µM)	6.00	1 µg/mL (≈ 2.95 µM)	MIC [21]: 4 µg/mL; MIC [22]: > 64 µg/mL; MIC [23]: 4 µg/mL; pIC50 [24]: 6.28; MIC [25]: 0.125 µg/mL (≈ 0.368 µM); MIC [26]: 0.125 µg/mL (≈ 0.368 µM); pIC50 [27]: < 5.00; inhibition [28]: 83.9%; pIC50 [29]: 6.34
Nc1nc(N)c2c(ccc3c2ccn3Cc2ccc3ccccc3n2)n1	> 64 µg/mL		0.125 µg/mL (≈ 0.367 µM)				2 µg/mL (≈ 5.88 µM)	0.5 µg/mL (≈ 1.47 µM)	0.06 µg/mL (≈ 0.176 µM)	4 µg/mL	≤ 0.03 µg/mL				0.03 µg/mL (≈ 0.0881 µM)		0.25 µg/mL (≈ 0.734 µM)	> 64 µg/mL	6.68	4 µg/mL (≈ 11.8 µM)	MIC [21]: 4 µg/mL; MIC [22]: > 64 µg/mL; MIC [23]: 2 µg/mL; pIC50 [24]: 6.57; MIC [25]: 0.06 µg/mL (≈ 0.176 µM); MIC [26]: 0.06 µg/mL (≈ 0.176 µM); pIC50 [27]: < 5.00; inhibition [28]: 74.1%; pIC50 [29]: 6.08
Nc1nc(N)c2c(ccc3c2ccn3Cc2cccc3cccnc23)n1	> 64 µg/mL	≤ 0.03 µg/mL	≤ 0.03 µg/mL	≤ 0.03 µg/mL	≤ 0.03 µg/mL	≤ 0.03 µg/mL	2 µg/mL (≈ 5.88 µM)	0.5 µg/mL (≈ 1.47 µM)	≤ 0.03 µg/mL	2 µg/mL	≤ 0.03 µg/mL	≤ 0.03 µg/mL	> 64 µg/mL	≤ 0.03 µg/mL	≤ 0.03 µg/mL	0.06 µg/mL (≈ 0.176 µM)	1 µg/mL (≈ 2.94 µM)	64 µg/mL (≈ 188 µM)	5.77	2 µg/mL (≈ 5.88 µM)	MIC [21]: 16 µg/mL; MIC [22]: > 64 µg/mL; MIC [23]: 16 µg/mL; pIC50 [24]: 5.91; MIC [25]: 0.06 µg/mL (≈ 0.176 µM); MIC [26]: 0.25 µg/mL (≈ 0.734 µM); pIC50 [27]: < 5.00; inhibition [28]: 38.7%; pIC50 [29]: 5.84
